Laboratory results reported in US6750381B2, “Pathogen-resistant plants transformed with a DNA encoding sarcotoxin 1A linked to a signal peptide and a method for production thereof” (National Institute of Agrobiological Sciences, priority 1996, dated 2004).

Key:
Assay in all cases: Anti-fungal activity of Sarcotoxin 1a in vitro (hyphal area on agar plate)
Format in all cases: cell-based
[1] = test system: Rhizoctonia solani AG-4 1272; conditions: Czapek's modified medium, 22° C. in the dark; FIG. 13
Experimental: (§1) Sarcotoxin 1a was measured for an anti-fungal activity against Fusarium oxysporum F-3, Rhizoctonia solani, and Rhizoctonia solani AG-4 1272.
(§2) It has not been known if Sarcotoxin 1a has an anti-fungal activity and how to measure the activity. Therefore, a pre-culture medium and a test medium were variously studied. The pre-culture medium, in which a lawn may be uniformly enlarged within a short period of time, was selected. The test medium, which controls the extension of hyphae as much as possible and allows easy confirmation, was selected.
(§3) (i) Czapek's modified medium (10 g of sucrose, 0.5 g of MgSO4.7H2O, 2.0 g of NaNO3, 0.01 g of Fe2(SO4)3, 1.0 g of K2HPO4, 0.5 g of KCl, 15 g of agarose per liter, pH 6.8 to 7.0; used for Rhizoctonia solani AG-4 1272), (ii) 5-fold diluted PDA medium (7.8 g of Bacto (Trademark) Poteto Dextrose Agar, 12 g of agarose per liter; used for Fusarium oxysporum F-3), (iii) Na2HPO4—NaH2PO4 buffer (15 g/l agarose, pH 5.8; used for Rhizoctonia solani).
(§4) The media for detection were autoclaved. When the media was cooled to 50° C., Sarcotoxin 1a (synthesized by a peptide synthesis and purified to 99% or more by HPLC) was added to each medium. Each of the resulting media was dispensed into a 12-well microplate at 400 μl per well and solidified.
(§5) Fusarium oxysporum F-3, Rhizoctonia solani, and Rhizoctonia solani AG-4 1272 were respectively pre-cultured in a PDA media (39 g/l Bacto (Trademark) Poteto Dextrose Agar) at 22° C. for 2 days.
(§6) An outermost lawn of each hypha spreading over almost the entire surface of the PDA medium of a 9 cm-petri dish was punched with a cork borer with a diameter of 4 mm, and each fungi was placed in the center of a well of a test plate in such a manner that the surface of the layer faced down. Each test plate for detection was kept at 22° C. in the dark.
(§7) Each test plate inoculated with the above-mentioned pathogenic fungi was measured for the size of each hypha growing under transmitted light at established periods, and the area of each hypha and a standard deviation were calculated (see FIGS. 12, 13, and 14). […]

[2] = test system: Rhizoctonia solani; conditions: Na2HPO4-NaH2PO4 buffer agarose pH 5.8, 22° C. in the dark; FIG. 14
Experimental: as §1, §2, §3, §4, §5, §6, §7

[3] = test system: Fusarium oxysporum F-3; conditions: 5-fold diluted PDA medium, 22° C. in the dark; FIG. 12
Experimental: as §1, §2, §3, §4, §5, §6, §7

Measured: anti-fungal properties (area of each hypha)

Sarcotoxin 1a (GWLKKIGKKIERVGQHTRDATIQGLGIAQQAANVAATAR) [anti-bacterial peptide derived from Boettherisca peregrina (Diptera insect); synthesized by a peptide synthesis and purified to 99% or more by HPLC]
concentration-dependent manner: [1] | [2] | [3]
